The values below are quoted from earlier work in US20140010866A1, “METHODS AND SYSTEMS FOR TREATMENT OF MIGRAINES AND OTHER INDICATIONS” (Strategic Science & Technologies, LLC, priority 2010, published 2014).

By pKa is commonly meant the negative logarithm of the acid dissociation constant. With `CC(C)[C@H]1C(=O)N2CCC[C@H]2[C@]2(O)O[C@@](C)(NC(=O)[C@@H]3C=C4c5cccc6[nH]cc(c56)C[C@H]4N(C)C3)C(=O)N12` [ergovaline], the pKa is 11.64. `CN(C)CCc1c[nH]c2ccc(CS(=O)(=O)N3CCCC3)cc12` [almotriptan]: the pKa is on record as 8.77. Turning to `CN[C@@H]1CCc2[nH]c3ccc(C(N)=O)cc3c2C1` [frovatriptan], the pKa is on record as 17.27. With `CC(C)C[C@H]1C(=O)N2CCC[C@H]2[C@]2(O)O[C@](NC(=O)[C@@H]3C=C4c5cccc6[nH]c(Br)c(c56)C[C@H]4N(C)C3)(C(C)C)C(=O)N12` [bromocriptine], the pKa was 11.13. As for `CN(C)CCc1c[nH]c2ccc(C[C@H]3COC(=O)N3)cc12` [zolmitriptan], the pKa is 17.15. Take `CNS(=O)(=O)CCc1ccc2[nH]cc(C3CCN(C)CC3)c2c1` [naratriptan]: the pKa is 17.11.
